Among the data in US20140221361A1, “C-19 MODIFIED TRITERPENOIDS WITH HIV MATURATION INHIBITORY ACTIVITY” (priority 2013, published 2014) are EC50 values, retold here.

Structures are written as SMILES. pEC50: −log10 of the molar value.

For the test, the system named is recombinant NL4-3 virus (Renilla luciferase in nef, Gag P373S). As to the kind of experiment: HIV cell culture assay (luciferase reporter, MT-2 cells). Type of test: cell-based, HIV-1. The note with it: Renilla, NL43, MT-2 cells infected for 4-5 days with NLRluc recombinants; luciferase activity; serial dilutions of inhibitor. Put shortly: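 MT-2 cells infected with recombinant NL4-3 carrying Renilla luciferase in place of part of nef and Gag P373S, virus made by 293T transfection. Infection ran 4-5 days with serial inhibitor dilutions. Antiviral activity read as luciferase activity (Dual Luciferase reagents mixed with lysis buffer).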
`CC1([C@@H]2CC[C@]3(NCCN4CCS(=O)(=O)CC4)CC[C@]4(C)[C@H](CC[C@@H]5[C@@]6(C)CC=C(c7ccc(C(=O)O)cc7)C(C)(C)[C@@H]6CC[C@]54C)[C@@H]23)CC1` [Example B52, 4-((1R,3aS,5aR,5bR,7aR,11aS,11bR,13aR,13bR)-3a-((2-(1,1-dioxidothiomorpholino)ethyl)amino)-5a,5b,8,8,11a-pentamethyl-1-(1-methylcyclopropyl)-2,3,3a,4,5,5a,5b,6,7,7a,8,11,11a,11b,12,13,13a,13b-octadecahydro-1H-cyclopenta[a]chrysen-9-yl)benzoic acid]: the pEC50 was 9.03.

Regarding `CC1([C@@H]2CC[C@]3(NCCN4CCC(S(C)(=O)=O)CC4)CC[C@]4(C)[C@H](CC[C@@H]5[C@@]6(C)CC=C(c7ccc(C(=O)O)cc7)C(C)(C)[C@@H]6CC[C@]54C)[C@@H]23)CC1` [Example B53, 4-((1R,3aS,5aR,5bR,7aR,11aS,11bR,13aR,13bR)-5a,5b,8,8,11a-pentamethyl-1-(1-methylcyclopropyl)-3a-(2-(4-(methylsulfonyl)piperidin-1-yl)ethylamino)-2,3,3a,4,5,5a,5b,6,7,7a,8,11,11a,11b,12,13,13a,13b-octadecahydro-1H-cyclopenta[a]chrysen-9-yl)benzoic acid], the negative-log EC50 (pEC50) is 8.99.

In the case of `CC1([C@@H]2CC[C@]3(N)CC[C@]4(C)[C@H](CC[C@@H]5[C@@]6(C)CC[C@H](c7ccc(C(=O)O)cc7)C(C)(C)[C@@H]6CC[C@]54C)[C@@H]23)CC1` [Example B54, 4-((1R,3aS,5aR,5bR,7aS,9S,11aS,11bR,13aR,13bR)-3a-amino-5a,5b,8,8,11a-pentamethyl-1-(1-methylcyclopropyl)icosahydro-1H-cyclopenta[a]chrysen-9-yl)benzoic acid], the pEC50 is 9.24.

For `CN[C@]12CC[C@@H](C3(C)CC3)[C@@H]1[C@H]1CC[C@@H]3[C@@]4(C)CC[C@H](c5ccc(C(=O)O)cc5)C(C)(C)[C@@H]4CC[C@@]3(C)[C@]1(C)CC2` [Example B55], the pEC50 was 8.82.

Consider `CC1([C@@H]2CC[C@]3(NCCN4CCN(S(C)(=O)=O)CC4)CC[C@]4(C)[C@H](CC[C@@H]5[C@@]6(C)CC=C(c7ccc(C(=O)O)cc7)C(C)(C)[C@@H]6CC[C@]54C)[C@@H]23)CC1` [Example B56, 4-((1R,3aS,5aR,5bR,7aR,11aS,11bR,13aR,13bR)-5a,5b,8,8,11a-pentamethyl-1-(1-methylcyclopropyl)-3a-(2-(4-(methylsulfonyl)piperazin-1-yl)ethylamino)-2,3,3a,4,5,5a,5b,6,7,7a,8,11,11a,11b,12,13,13a,13b-octadecahydro-1H-cyclopenta[a]chrysen-9-yl)benzoic acid], for which the pEC50 was 8.60.
